Values of other authors as cited in US5716935A, “Use of antiotensin II analogs in tissue repair” (University of Southern California, priority 1996, dated 1998).

Key:
aminopeptidase = details: reported in literature
wound tissue = details: applied to wound tissue; U.S. Pat. No. 5,015,629

Question: Which cleavage by aminopeptidase (aminopeptidase) does the source give for `CC[C@H](C)[C@H](NC(=O)[C@H](Cc1ccc(O)cc1)NC(=O)[C@@H](NC(=O)[C@H](CCCNC(=N)N)NC(=O)CNC)C(C)C)C(=O)N[C@@H](Cc1cnc[nH]1)C(=O)N1CCC[C@H]1C(=O)N[C@@H](Cc1ccccc1)C(=O)O` [Analog 4, Sar-Arg-Val-Tyr-Ile-His-Pro-Phe] here?
Answer: resistant

Question: Which “rate of wound healing” value (wound tissue) does the source give for “Asp-Arg-Val-Tyr-Ile-His-Pro-Phe [angiotensin II, octapeptide present in humans and other species; known pressor agent]” here?
Answer: significantly increases
